Reference: PubChem BioAssay (NCI)
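Compound exposure: 48 hours, 5 concentrations, 96-well plates. TGI: concentration producing complete growth inhibition.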

Key:
Assay in all cases: NCI tumour cell line growth inhibition, 48 h
EKVX NSCLC = system: EKVX NSCLC
IGROV1 ovarian = system: IGROV1 ovarian
NCI-H522 lung = system: NCI-H522 lung
CAKI-1 renal = system: CAKI-1 renal
SK-MEL-28 melanoma = system: SK-MEL-28 melanoma
HCT-15 colon = system: HCT-15 colon
HCT-116 colon = system: HCT-116 colon
NCI-H226 lung = system: NCI-H226 lung
DU-145 prostate = system: DU-145 prostate
UACC-62 melanoma = system: UACC-62 melanoma
SNB-75 CNS = system: SNB-75 CNS
ACHN renal = system: ACHN renal
SF-295 CNS = system: SF-295 CNS
SR leukemia = system: SR leukemia
MOLT-4 leukemia = system: MOLT-4 leukemia
NCI/ADR-RES ovarian = system: NCI/ADR-RES ovarian
SN12C renal = system: SN12C renal
OVCAR-4 ovarian = system: OVCAR-4 ovarian
LOX IMVI melanoma = system: LOX IMVI melanoma
OVCAR-5 ovarian = system: OVCAR-5 ovarian

Row | SMILES | TGI (EKVX NSCLC) [µM] | TGI (IGROV1 ovarian) [µM] | TGI (NCI-H522 lung) [µM] | TGI (CAKI-1 renal) [µM] | TGI (SK-MEL-28 melanoma) [µM] | TGI (HCT-15 colon) [µM] | TGI (HCT-116 colon) [µM] | TGI (NCI-H226 lung) [µM] | TGI (DU-145 prostate) [µM] | TGI (UACC-62 melanoma) [µM] | TGI (SNB-75 CNS) [µM] | TGI (ACHN renal) [µM] | TGI (SF-295 CNS) [µM] | TGI (SR leukemia) [µM] | TGI (MOLT-4 leukemia) [µM] | TGI (NCI/ADR-RES ovarian) [µM] | TGI (SN12C renal) [µM] | TGI (OVCAR-4 ovarian) [µM] | TGI (LOX IMVI melanoma) [µM] | TGI (OVCAR-5 ovarian) [µM]
1 | COc1ccc(/C(CC2OC(=O)c3ccccc32)=N\NC(=O)C[N+](C)(C)C)cc1 (stereo not given) | > 100 | > 100 | 64.1 | > 100 | 55.5 | 44.8 | 81.9 | 62.6 | 63.4 | 40.1 | 75.6 | > 100 | > 100 | 45.4 | 70.2 | 56.7 | > 100 | 78.5 | 65.9 | > 100
2 | CC(O)C1(CNc2cc(Cl)nc(N)n2)CC(CCc2ccccc2)C1 (stereo not given) | 37.3 | 28.4 | 21.8 | 29.4 | 27.8 | 24 | 21.1 | 30.8 | 35.9 | 24.5 | 40 | 22.2 | 27.6 | 35.8 | 56 | 21.8 | 20.9 | 23.3 | 16.9 | 33.9
3 | C/C(=N\NC(=S)N(C)CCN(C)C(=S)N/N=C(\C)c1ccccn1)c1ccccn1 | 10.4 | 3.96 | 18.8 | 11.8 | 19.8 | 18.5 | 11.5 | 3.48 | 13.1 | 8.07 | 7.59 | 11.4 | 19.6 | 3.71 | 46.3 | 2.02 | 6.91 | 14.8 | 22.6 | 42
4 | Nc1ncnc2c1ncn2[C@H]1CC[C@@H](NO)C1 | > 100 | > 100 | > 100 | > 100 | > 100 | > 100 | > 100 | > 100 | > 100 | > 100 | > 100 | > 100 | > 100 | > 100 | > 100 | > 100 | > 100 | > 100 | > 100 | > 100
5 | COC(=O)/C=C(/OC)[C@H](C)[C@H](/C=C/c1csc(-c2csc(C(C)C)n2)n1)OC | > 100 | > 100 | > 100 | > 100 | > 100 | > 100 | > 100 | > 100 | > 100 | > 100 | > 100 | > 100 | > 100 | > 100 | > 100 | > 100 | > 100 | > 100 | 5.07 | > 100
6 | O=C(O)[C@@H]1NC[C@H]2C(Br)=NO[C@H]21 | > 100 | > 100 | > 100 | > 100 | > 100 | > 100 | > 100 | > 100 | > 100 | > 100 | > 100 | > 100 | > 100 | > 100 | > 100 | > 100 | > 100 | > 100 | > 100 | > 100
7 | CC(C)(C)OC(=O)C1CC[C@@H](CC(=O)Oc2ccc([N+](=O)[O-])cc2)N1 (stereo not given in full) | > 100 | > 100 | > 100 | > 100 | > 100 | > 100 | > 100 | > 100 | > 100 | > 100 | > 100 | > 100 | > 100 | > 100 | > 100 | > 100 | > 100 | > 100 | > 100 | > 100
8 | CCOC(=O)C(NCc1cccc(C(F)(F)F)c1)(NC(=O)CC)C(F)(F)F (stereo not given) | > 100 | > 100 | > 100 | > 100 | > 100 | > 100 | > 100 | > 100 | > 100 | > 100 | > 100 | > 100 | > 100 | > 100 | > 100 | > 100 | > 100 | > 100 | > 100 | > 100
9 | O=c1c2cc([N+](=O)[O-])ccc2nc2n1CCCCC2 | > 100 | > 100 | > 100 | > 100 | > 100 | > 100 | > 100 | > 100 | > 100 | > 100 | > 100 | > 100 | > 100 | > 100 | > 100 | > 100 | > 100 | > 100 | > 100 | > 100
10 | COCn1c(C)c(C)c2c(=O)oc(N(C)C)nc21 | > 100 | > 100 | > 100 | > 100 | > 100 | > 100 | > 100 | > 100 | > 100 | > 100 | > 100 | > 100 | > 100 | > 100 | > 100 | > 100 | > 100 | > 100 | > 100 | > 100
11 | CN(C)CCCCN1c2ccccc2Sc2ccc(C(=O)c3ccccc3)cc21 | 15.9 | 7.89 | 6.84 | 5.32 | 3.72 | 9.27 | 4.9 | 22.8 | 10.7 | 6.39 | 6.92 | 7.19 | 4.82 | > 100 | 6.31 | 11.1 | 9.84 | 10.8 | 3.44 | 13.8
12 | O=c1[nH]c(=O)n(C2CC(O)C(CO)O2)cc1OCC1CCCCC1 (stereo not given) | > 100 | > 100 | > 100 | > 100 | > 100 | > 100 | > 100 | > 100 | > 100 | > 100 | > 100 | > 100 | > 100 | > 100 | > 100 | > 100 | > 100 | > 100 | > 100 | > 100
13 | COc1cc(Nc2nc3ccc(C(F)(F)F)cc3nc2C(=O)O)cc(OC)c1OC | 97.2 | 66.6 | 51.8 | 61.7 | 80.3 | 35.3 | 34.9 | 40.6 | 80.6 | 38.2 | > 100 | 51.5 | 81.9 | > 100 | > 100 | 45.5 | 38.1 | 52.6 | 35.6 | > 100
14 | COC1CC(NC(=O)C(F)(F)F)C(OC(C)=O)C(C)O1 (stereo not given) | > 100 | > 100 | > 100 | > 100 | > 100 | > 100 | > 100 | > 100 | > 100 | > 100 | > 100 | > 100 | > 100 | > 100 | > 100 | > 100 | > 100 | > 100 | > 100 | > 100
15 | [O-][n+]1onc2c1/C(=N/O)CCC2 | > 100 | > 100 | > 100 | > 100 | > 100 | > 100 | > 100 | > 100 | > 100 | > 100 | > 100 | > 100 | > 100 | > 100 | > 100 | > 100 | > 100 | > 100 | > 100 | > 100
16 | N#Cc1nc(C(CO)N(Cc2ccccc2)C(=O)O)oc1N (stereo not given) | > 100 | > 100 | > 100 | > 100 | > 100 | > 100 | > 100 | > 100 | > 100 | > 100 | > 100 | > 100 | > 100 | > 100 | > 100 | > 100 | > 100 | > 100 | > 100 | > 100
